Laboratory results taken from US8741339B2, “Active targeting polymer micelle encapsulating drug, and pharmaceutical composition” (Nonocarrier Co., Ltd., priority 2008, dated 2014).
In brackets after ≈: the same amount, converted by molar mass.

Assays:
Format in all cases: cell-based
[1] = test system: human prostate cancer DU145 cell; assay: Cytotoxicity test 3 (WST method, 8 hours with sample liquid); conditions: DU-145, total cultivation 72 hours, as CPT concentration
[2] = test system: human breast cancer MDA-MB-231 cell; assay: Cytotoxicity test 5 (WST method, 8 hours with sample liquid); conditions: MDA-MB-231, human breast cancer, total cultivation 72 hours, as CPT concentration
Procedure: The human breast cancer MDA-MB-231 cell, which had been suspended in 90 μIL of a medium, was seeded to a 96-well plate so that the cell would be contained at a concentration of about 5000 cells per well, and cultivated under an atmosphere of 37° C. and 5% CO2 overnight. The medium was formed of RPMI1640 (Gibco™, Invitrogen) and 10% Fetal Bovine Serum (FBS, biowest). Subsequently, each of sample liquids at various DTX concentrations obtained by diluting the micelle solution in Example 2 and the micelle solution in Comparative Example 1 with the medium was added to each well (10 μL per well), […] […] From each well, the absorbance (Abs450) of light at a wavelength of 450 nm was measured, and the cell growth rate (% cell growth) was calculated based on the below-indicated mathematical equation. It should be noted that “Abs450 value of control” in the mathematical equation means an absorbance obtained from a well in which the above-mentioned cultivation has been performed using a culture liquid free of DTX. % cell growth=[(Abs450 value after addition of sample liquid)−(Abs450 value of blank)]/[(Abs450 value of control)−(Abs450 value of blank)]×100 […]

[3] = test system: human liver cancer HepG2 cell; assay: Cytotoxicity test 4 (WST method, 8 hours with sample liquid); conditions: total cultivation 72 hours, as CPT concentration

Compound: CC[C@@]1(O)C(=O)OCc2c1cc1n(c2=O)Cc2cc3ccccc3nc2-1 [Solution, camptothecin]
- GI50 [1]: 0.01 µg/mL (≈ 0.0287 µM)
- GI50 [2]: 1 µg/mL (≈ 2.87 µM)
- GI50 [3]: 0.04 µg/mL (≈ 0.115 µM)
